Results from US8691865B2 (AbbVie Inc., priority 2008, dated 2014).

These molecules were tested against human Cav2.2 (Homo sapiens, UniProt Q00975) (assay: Assessment of calcium channel activity using FLIPR (Ca2+ influx in IMR32 cells)). Conditions: not given.
Format: cell-based
Procedure: (i) In Vitro Methods—Assessment of Calcium Channel Activity Using FLIPR:
The IMR32 cells were maintained in MEM media containing 10% (v/v) FBS, 1% (v/v) antibiotic/antimitotic, 1% (v/v) sodium pyruvate and 1% (v/v) MEM NEAA. Following dissociation in 0.05% (v/v) trypsin/EDTA, cells were seeded into black 1×96-well plates (Corning Cellbind) at a density of 1−1.2×10^5 cells/well and incubated in the maintenance media above for 48 hours at 37° C. […] To determine the IC50 values, the percent inhibition of the compound at each concentration was determined relative to the activity in the absence of inhibitor, and data was fitted using non-linear regression sigmoidal dose response curve analysis with GraphPad Prism®.

Sequence of human Cav2.2 (Q00975 whole entry): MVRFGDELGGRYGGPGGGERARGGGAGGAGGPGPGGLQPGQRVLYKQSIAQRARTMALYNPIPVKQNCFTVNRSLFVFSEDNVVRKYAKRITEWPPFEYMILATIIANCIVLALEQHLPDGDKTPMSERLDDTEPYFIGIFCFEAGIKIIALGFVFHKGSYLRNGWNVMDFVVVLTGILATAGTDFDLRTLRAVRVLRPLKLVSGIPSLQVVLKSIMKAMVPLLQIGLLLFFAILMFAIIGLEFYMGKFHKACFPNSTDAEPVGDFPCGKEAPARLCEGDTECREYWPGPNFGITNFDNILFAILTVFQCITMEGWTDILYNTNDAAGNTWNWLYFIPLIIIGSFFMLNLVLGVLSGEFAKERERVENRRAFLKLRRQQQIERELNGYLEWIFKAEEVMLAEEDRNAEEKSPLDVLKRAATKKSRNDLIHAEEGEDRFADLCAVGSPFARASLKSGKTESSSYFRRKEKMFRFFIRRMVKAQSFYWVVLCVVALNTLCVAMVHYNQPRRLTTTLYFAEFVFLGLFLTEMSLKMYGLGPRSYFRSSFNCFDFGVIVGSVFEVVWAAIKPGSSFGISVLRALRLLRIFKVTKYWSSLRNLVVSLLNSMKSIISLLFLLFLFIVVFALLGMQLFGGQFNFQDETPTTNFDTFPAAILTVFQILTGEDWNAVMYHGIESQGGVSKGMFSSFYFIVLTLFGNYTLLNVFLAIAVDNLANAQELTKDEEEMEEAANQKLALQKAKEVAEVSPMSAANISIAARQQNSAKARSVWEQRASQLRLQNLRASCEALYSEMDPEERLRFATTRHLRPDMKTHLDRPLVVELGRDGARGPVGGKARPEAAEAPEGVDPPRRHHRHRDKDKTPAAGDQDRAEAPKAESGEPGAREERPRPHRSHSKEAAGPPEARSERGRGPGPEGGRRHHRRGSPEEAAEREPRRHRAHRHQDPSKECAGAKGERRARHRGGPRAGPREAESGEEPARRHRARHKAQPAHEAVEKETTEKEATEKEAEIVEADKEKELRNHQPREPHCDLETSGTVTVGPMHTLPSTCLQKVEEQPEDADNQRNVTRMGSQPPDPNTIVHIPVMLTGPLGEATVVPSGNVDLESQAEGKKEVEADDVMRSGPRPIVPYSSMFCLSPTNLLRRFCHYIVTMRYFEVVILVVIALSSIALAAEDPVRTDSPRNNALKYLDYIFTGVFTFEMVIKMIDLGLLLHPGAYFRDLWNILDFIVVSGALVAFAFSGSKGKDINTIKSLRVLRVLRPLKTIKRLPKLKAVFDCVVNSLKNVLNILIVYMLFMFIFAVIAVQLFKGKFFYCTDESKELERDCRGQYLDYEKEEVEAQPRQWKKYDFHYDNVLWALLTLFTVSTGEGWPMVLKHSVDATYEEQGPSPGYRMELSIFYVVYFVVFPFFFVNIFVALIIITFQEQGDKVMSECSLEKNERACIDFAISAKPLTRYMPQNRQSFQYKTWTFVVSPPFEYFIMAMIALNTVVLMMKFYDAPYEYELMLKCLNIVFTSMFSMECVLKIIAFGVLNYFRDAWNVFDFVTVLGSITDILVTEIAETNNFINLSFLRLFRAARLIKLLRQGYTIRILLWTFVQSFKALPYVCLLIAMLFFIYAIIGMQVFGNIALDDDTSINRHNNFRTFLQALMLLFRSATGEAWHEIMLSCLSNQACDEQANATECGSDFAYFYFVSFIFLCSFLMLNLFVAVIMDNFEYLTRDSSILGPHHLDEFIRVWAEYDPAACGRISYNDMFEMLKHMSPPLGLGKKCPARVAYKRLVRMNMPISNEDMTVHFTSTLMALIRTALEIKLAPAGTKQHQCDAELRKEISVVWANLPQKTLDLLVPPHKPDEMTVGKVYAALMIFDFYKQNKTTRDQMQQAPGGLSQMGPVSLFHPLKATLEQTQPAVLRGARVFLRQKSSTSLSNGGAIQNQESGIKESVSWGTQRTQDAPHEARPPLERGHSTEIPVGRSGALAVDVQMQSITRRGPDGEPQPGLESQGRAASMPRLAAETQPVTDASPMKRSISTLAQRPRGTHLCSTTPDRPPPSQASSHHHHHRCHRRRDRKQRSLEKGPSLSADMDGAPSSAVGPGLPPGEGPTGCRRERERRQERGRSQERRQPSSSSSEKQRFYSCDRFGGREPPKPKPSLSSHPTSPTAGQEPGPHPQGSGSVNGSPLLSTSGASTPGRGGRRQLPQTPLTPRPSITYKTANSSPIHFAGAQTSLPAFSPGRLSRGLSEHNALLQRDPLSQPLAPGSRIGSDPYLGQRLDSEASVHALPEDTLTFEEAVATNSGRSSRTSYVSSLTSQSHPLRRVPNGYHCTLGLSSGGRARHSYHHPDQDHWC
Sequence of human Cav2.2 (P54289 25-956 partner limits assumed): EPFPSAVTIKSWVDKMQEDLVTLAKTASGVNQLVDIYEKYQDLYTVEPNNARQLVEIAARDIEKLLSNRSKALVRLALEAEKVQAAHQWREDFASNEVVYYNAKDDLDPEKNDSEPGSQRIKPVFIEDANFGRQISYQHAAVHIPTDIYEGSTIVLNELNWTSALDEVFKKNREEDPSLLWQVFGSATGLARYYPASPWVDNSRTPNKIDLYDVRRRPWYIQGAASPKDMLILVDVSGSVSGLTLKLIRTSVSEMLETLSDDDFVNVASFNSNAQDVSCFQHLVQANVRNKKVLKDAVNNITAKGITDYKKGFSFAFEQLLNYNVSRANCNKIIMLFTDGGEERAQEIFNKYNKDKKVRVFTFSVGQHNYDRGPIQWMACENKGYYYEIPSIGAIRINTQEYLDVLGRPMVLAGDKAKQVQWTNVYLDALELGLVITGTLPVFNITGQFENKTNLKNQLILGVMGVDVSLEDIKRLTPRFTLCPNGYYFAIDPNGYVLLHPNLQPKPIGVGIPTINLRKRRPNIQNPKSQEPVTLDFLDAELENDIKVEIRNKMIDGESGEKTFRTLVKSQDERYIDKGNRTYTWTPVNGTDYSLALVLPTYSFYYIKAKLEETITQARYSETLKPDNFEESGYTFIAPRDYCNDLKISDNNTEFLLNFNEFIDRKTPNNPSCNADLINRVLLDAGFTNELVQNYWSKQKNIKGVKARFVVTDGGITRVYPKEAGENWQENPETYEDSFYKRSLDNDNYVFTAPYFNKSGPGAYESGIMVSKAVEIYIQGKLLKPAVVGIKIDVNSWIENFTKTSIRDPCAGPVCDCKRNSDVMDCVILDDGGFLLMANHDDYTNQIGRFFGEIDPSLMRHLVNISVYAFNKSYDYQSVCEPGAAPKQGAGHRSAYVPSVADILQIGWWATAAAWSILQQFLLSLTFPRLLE
Sequence of human Cav2.2 (P54289 957-1103 partner limits assumed): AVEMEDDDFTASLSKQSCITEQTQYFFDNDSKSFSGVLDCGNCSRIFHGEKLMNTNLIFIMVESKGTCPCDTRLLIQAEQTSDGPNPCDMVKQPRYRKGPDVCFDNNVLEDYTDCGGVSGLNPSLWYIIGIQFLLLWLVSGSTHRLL
Sequence of human Cav2.2 (P54284 whole entry partner): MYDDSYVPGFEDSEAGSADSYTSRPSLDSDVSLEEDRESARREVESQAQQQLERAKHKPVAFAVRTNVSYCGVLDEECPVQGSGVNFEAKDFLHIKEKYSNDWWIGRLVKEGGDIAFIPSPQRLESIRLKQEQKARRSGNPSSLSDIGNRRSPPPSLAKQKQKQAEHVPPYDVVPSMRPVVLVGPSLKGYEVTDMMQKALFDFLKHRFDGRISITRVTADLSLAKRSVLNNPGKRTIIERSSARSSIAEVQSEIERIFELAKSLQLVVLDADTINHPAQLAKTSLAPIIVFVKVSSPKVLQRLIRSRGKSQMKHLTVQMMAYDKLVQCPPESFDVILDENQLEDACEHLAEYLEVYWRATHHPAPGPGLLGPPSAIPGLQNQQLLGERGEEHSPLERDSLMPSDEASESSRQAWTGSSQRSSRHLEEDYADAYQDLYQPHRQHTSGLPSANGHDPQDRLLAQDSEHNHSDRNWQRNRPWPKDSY

Point of comparison: CN[C@@H](CC(C)C)C(=O)N[C@H]1CC[C@@H]2CN(c3ccccc3F)C[C@@H]21 [Example 619, N-[(3aR,4S,6aS)-2-(2-fluorophenyl)octahydrocyclopenta[c]pyrrol-4-yl]-N^2-methyl-L-leucinamide], IC50 2.84 µM. Against it:
- FC(F)(F)c1cccc(N2C[C@H]3CC[C@H](NCc4[nH]c5ccccc5c4Cl)[C@H]3C2)n1 [Example 679, (3aR,4S,6aS)-N-[(3-chloro-1H-indol-2-yl)methyl]-2-[6-(trifluoromethyl)pyridin-2-yl]octahydrocyclopenta[c]pyrrol-4-amine] — 1.8-fold lower, 1.62 µM
- CCC[C@H](NC)C(=O)N[C@H]1CC[C@H]2CN(Cc3ccccc3)C[C@H]21 [Example 359, N^1-[(3aS,4S,6aR)-2-benzyloctahydrocyclopenta[c]pyrrol-4-yl]-N^2-methyl-L-norvalinamide] — higher, > 30 µM
- CC(C)CC(C(=O)NC1CCC2CN(Cc3ccc(F)c(C(F)(F)F)c3)CC21)N(C)C(=O)OC(C)(C)C [Example 312, tert-butyl(S)-1-((3aS,4R,6aR)-2-(4-fluoro-3-(trifluoromethyl)benzyl)octahydrocyclopenta[c]pyrrol-4-ylamino)-4-methyl-1-oxopentan-2-ylmethyl)carbamate] — 1.8-fold lower, 1.59 µM
- O=C(N[C@H]1CC[C@H]2CN(Cc3ccccc3F)C[C@H]21)C(C1CCCCC1)C1CCCCC1 [Example 55, 2,2-dicyclohexyl-N-[(3aS,4S,6aR)-2-(2-fluorobenzyl)octahydrocyclopenta[c]pyrrol-4-yl]acetamide] — 2.5-fold lower, 1.12 µM
- N#Cc1ccc(N2C[C@H]3CC[C@H](NC(=O)[C@@H]4C[C@@H](F)CN4)[C@H]3C2)cc1 [Example 633, (4R)-N-[(3aR,4S,6aS)-2-(4-cyanophenyl)octahydrocyclopenta[c]pyrrol-4-yl]-4-fluoro-L-prolinamide] — 9.2-fold higher, 26.2 µM
- CC(C)(C)CCN[C@H]1CC[C@@H]2CN(c3cccc(C(F)(F)F)n3)C[C@@H]21 [Example 611, (3aR,4S,6aS)-N-(3,3-dimethylbutyl)-2-[6-(trifluoromethyl)pyridin-2-yl]octahydrocyclopenta[c]pyrrol-4-amine] — 5.7-fold lower, 0.5 µM
- CN[C@@H](CC(C)C)C(=O)N[C@H]1CC[C@@H]2CN(c3ccc(C)cc3)C[C@@H]21 [Example 648, N^2-methyl-N-[(3aR,4S,6aS)-2-(4-methylphenyl)octahydrocyclopenta[c]pyrrol-4-yl]-L-leucinamide] — within 1.5-fold, 3.55 µM
- CCC[C@H](NC)C(=O)N[C@H]1CC[C@@H]2CN(c3cccc(C(F)(F)F)n3)C[C@@H]21 [Example 588, N^2-methyl-N-{(3aR,4S,6aS)-2-[6-(trifluoromethyl)pyridin-2-yl]octahydrocyclopenta[c]pyrrol-4-yl}-L-norvalinamide] — 2.8-fold lower, 1.02 µM
- CCC[C@H](NC)C(=O)N[C@H]1CC[C@@H]2CN(S(=O)(=O)c3ccc(OC(F)(F)F)cc3)C[C@@H]21 [Example 532, N^2-methyl-N^1-((3aR,4S,6aS)-2-{[4-(trifluoromethoxy)phenyl]sulfonyl}octahydrocyclopenta[c]pyrrol-4-yl)-L-norvalinamide] — within 1.5-fold, 3.16 µM
- CCCC(CCC)C(=O)N[C@H]1CC[C@H]2CN(Cc3cccc(C(F)(F)F)c3)C[C@H]21 (relative stereo) [Example 126, 2-propyl-N-{(3aS*,4S*,6aR*)-2-[3-(trifluoromethyl)benzyl]octahydrocyclopenta[c]pyrrol-4-yl}pentanamide] — 3-fold lower, 0.95 µM
- O=C(N[C@H]1CC[C@@H]2CN(c3ccccc3OC(F)(F)F)C[C@@H]21)[C@@H]1C[C@@H](F)CN1 [Example 656, (4R)-4-fluoro-N-{(3aR,4S,6aS)-2-[2-(trifluoromethoxy)phenyl]octahydrocyclopenta[c]pyrrol-4-yl}-L-prolinamide] — within 1.5-fold, 2.16 µM
- Cc1cnc(C(=O)N[C@H]2CC[C@@H]3CN(c4cccc(C(F)(F)F)n4)C[C@@H]32)cn1 [Example 579, 5-methyl-N-{(3aR,4S,6aS)-2-[6-(trifluoromethyl)pyridin-2-yl]octahydrocyclopenta[c]pyrrol-4-yl}pyrazine-2-carboxamide] — within 1.5-fold, 2.63 µM
- O=C(N[C@H]1CC[C@H]2CN(Cc3ccccc3C(F)(F)F)C[C@H]21)C(C1CCCCC1)C1CCCCC1 [Example 60, 2,2-dicyclohexyl-N-{(3aS,4S,6aR)-2-[2-(trifluoromethyl)benzyl]octahydrocyclopenta[c]pyrrol-4-yl}acetamide] — within 1.5-fold, 2.43 µM
- COc1ccc2[nH]cc(CN[C@H]3CC[C@@H]4CN(c5cccc(C(F)(F)F)n5)C[C@@H]43)c2c1 [Example 685, (3aR,4S,6aS)-N-[(5-methoxy-1H-indol-3-yl)methyl]-2-[6-(trifluoromethyl)pyridin-2-yl]octahydrocyclopenta[c]pyrrol-4-amine] — 2.6-fold lower, 1.1 µM
- FC(F)(F)c1ccc(-c2nc(CN[C@H]3CC[C@@H]4CN(c5cccc(C(F)(F)F)n5)C[C@@H]43)c[nH]2)cc1 [Example 742, (3aR,4S,6aS)-N-({2-[4-(trifluoromethyl)phenyl]-1H-imidazol-4-yl}methyl)-2-[6-(trifluoromethyl)pyridin-2-yl]octahydrocyclopenta[c]pyrrol-4-amine] — 2.2-fold lower, 1.3 µM
- CN[C@@H](CC(C)C)C(=O)N[C@H]1CC[C@@H]2CN(c3ccc(C(F)(F)F)nn3)C[C@@H]21 [Example 724, N^2-methyl-N-{(3aR,4S,6aS)-2-[6-(trifluoromethyl)pyridazin-3-yl]octahydrocyclopenta[c]pyrrol-4-yl}-L-leucinamide] — 7.9-fold higher, 22.3 µM
- Fc1ccc(-c2nc(CN[C@H]3CC[C@@H]4CN(c5cccc(C(F)(F)F)n5)C[C@@H]43)co2)cc1 [Example 743, (3aR,4S,6aS)-N-{[2-(4-fluorophenyl)-1,3-oxazol-4-yl]methyl}-2-[6-(trifluoromethyl)pyridin-2-yl]octahydrocyclopenta[c]pyrrol-4-amine] — 2.8-fold lower, 1 µM
- CN[C@@H](CC(C)C)C(=O)N[C@H]1CC[C@@H]2CN(c3cccc(Cl)c3)C[C@@H]21 [Example 628, N-[(3aR,4S,6aS)-2-(3-chlorophenyl)octahydrocyclopenta[c]pyrrol-4-yl]-N^2-methyl-L-leucinamide] — within 1.5-fold, 3.53 µM

Same assay, conditions: read-out: IC50 (μM) or percent inhibition (* indicates 3 minute incubation, otherwise 60 minute); IC50; 60 minute pre-incubation with compound; IMR32 cells, 80 mM KCl depolarization

Point of comparison: CCC[C@H](NC)C(=O)N[C@H]1CC[C@@H]2CN(S(=O)(=O)c3ccc(C#N)cc3)C[C@@H]21 [Example 536, N^1-{(3aR,4S,6aS)-2-[(4-cyanophenyl)sulfonyl]octahydrocyclopenta[c]pyrrol-4-yl}-N^2-methyl-L-norvalinamide], IC50 8.37 µM. Against it:
- CCC[C@@H](C(=O)N[C@@H]1CC[C@@H]2CN(S(=O)(=O)c3ccc(C(F)(F)F)cc3)C[C@@H]21)N(C)C(=O)OC(C)(C)C [Example 328, tert-butyl methyl((S)-1-oxo-1-((3aR,4R,6aS)-2-(4-(trifluoromethyl)phenylsulfonyl)octahydrocyclopenta[c]pyrrol-4-ylamino)pentan-2-yl)carbamate] — 6-fold lower, 1.39 µM
- FC(F)(F)c1cccc(CN2C[C@@H]3CC[C@H](N(C4CC4)C4CC4)[C@@H]3C2)c1 (relative stereo) [Example 196, (3aS*,4S*,6aR*)-N,N-dicyclopropyl-2-[3-(trifluoromethyl)benzyl]octahydrocyclopenta[c]pyrrol-4-amine] — 2.6-fold lower, 3.18 µM
- 4-methyl-N^1-{(3aR,4S,6aS)-2-[2-(methylsulfonyl)pyrimidin-5-yl]octahydrocyclopenta[c]pyrrol-4-yl}-L-leucinamide [Example 442] — within 1.5-fold, 7.18 µM
- CC(C)C[C@@H](C(=O)N[C@@H]1CC[C@@H]2CN(Cc3ccccc3)C[C@@H]21)N(C)C(=O)OC(C)(C)C [Example 241] — 4-fold lower, 2.08 µM
- CC[C@H](C(=O)N[C@H]1CC[C@@H]2CN([C@@H](C)c3ccccc3)C[C@@H]21)c1ccccc1 [Example 211, (2S)-2-phenyl-N-{(3aR,4S,6aS)-2-[(1S)-1-phenylethyl]octahydrocyclopenta[c]pyrrol-4-yl}butanamide] — 2.2-fold lower, 3.82 µM
- Cc1ccccc1CN1C[C@H]2CC[C@H](NC(=O)C(c3ccccc3)C(C)C)[C@H]2C1 (stereo partly drawn) [Example 92, 3-methyl-N-[(3aR,4S,6aS)-2-(2-methylbenzyl)octahydrocyclopenta[c]pyrrol-4-yl]-2-phenylbutanamide] — 4.1-fold lower, 2.04 µM
- CC(C)(C)CN[C@@H](CC(C)(C)C)C(=O)N[C@H]1CC[C@@H]2CN(S(=O)(=O)c3ccc(C(F)(F)F)cc3)C[C@@H]21 [Example 505, 4-methyl-N^2-neopentyl-N^1-((3aR,4S,6aS)-2-{[4-(trifluoromethyl)phenyl]sulfonyl}octahydrocyclopenta[c]pyrrol-4-yl)-L-leucinamide] — 3.8-fold lower, 2.23 µM
- O=S(=O)(N[C@@H]1CC[C@H]2CN(Cc3cc(C(F)(F)F)cc(C(F)(F)F)c3)C[C@H]21)c1cccc(C(F)(F)F)c1 [Example 192, N-{(3aS,4R,6aR)-2-[3,5-bis(trifluoromethyl)benzyl]octahydrocyclopenta[c]pyrrol-4-yl}-3-(trifluoromethyl)benzenesulfonamide] — 3.7-fold lower, 2.27 µM
- CC(C)C(C(=O)N[C@H]1CC[C@@H]2CN(Cc3ccc(C(C)(C)C)cc3)C[C@@H]21)c1ccccc1 (stereo partly drawn) [Example 95, N-[(3aR,4S,6aS)-2-(4-tert-butylbenzyl)octahydrocyclopenta[c]pyrrol-4-yl]-3-methyl-2-phenylbutanamide] — 8-fold lower, 1.04 µM
- O=S(=O)(N[C@H]1CC[C@H]2CN(CCCCO)C[C@H]21)c1cccc(C(F)(F)F)c1 [Example 195, N-[(3aS,4S,6aR)-2-(4-hydroxybutyl)octahydrocyclopenta[c]pyrrol-4-yl]-3-(trifluoromethyl)benzenesulfonamide] — 2.6-fold higher, 22.1 µM
- O=C(N[C@@H]1CC[C@H]2CN(Cc3ccc(C(F)(F)F)c(F)c3)C[C@H]21)C(C1CCCCC1)C1CCCCC1 [Example 76, 2,2-dicyclohexyl-N-{(3aS,4R,6aR)-2-[3-fluoro-4-(trifluoromethyl)benzyl]octahydrocyclopenta[c]pyrrol-4-yl}acetamide] — within 1.5-fold, 5.67 µM
